Where two headings read alike, the source gives them in different places.
Tests used:
[1] = Stereospecificity of inhibition of cell proliferation (D-isomer vs L-isomer); format: cell-based; settings: 25 μM dose, preparation 95% enriched in D-isomer, p<0.001, FIG. 2
A172 = assay: MTT assay, human cancer cell line A172 (brain); format: cell-based; settings: A172, 25 μM, 48 hour MTT assay; for inhibition at 25 µM: Homo sapiens, A 172, read-out: Percent inhibition of human cancer cell line growth
[2] = test system: human cell lines derived from a variety of cancer types (brain, breast, bladder, lung, and prostate); assay: MTT assay, all ten human cancer cell lines together; format: cell-based; settings: for inhibition at 25 µM: read-out: inhibition levels (mean±SD)
J82 = assay: MTT assay, human cancer cell line J82 (bladder); format: cell-based; settings: J82, 25 μM, 48 hour MTT assay; for inhibition at 25 µM: Homo sapiens, read-out: Percent inhibition of human cancer cell line growth
HT1376 = assay: MTT assay, human cancer cell line HT1376 (bladder); format: cell-based; settings: HT1376, 25 μM, 48 hour MTT assay; for inhibition at 25 µM: Homo sapiens, HT-1376, read-out: Percent inhibition of human cancer cell line growth
PC3 = assay: MTT assay, human cancer cell line PC3 (prostate); format: cell-based; settings: PC3, 25 μM, 48 hour MTT assay; for inhibition at 25 µM: Homo sapiens, PC-3, read-out: Percent inhibition of human cancer cell line growth
C6 cells [3] = assay: Cell size and refractile bodies by phase microscopy, C6 cells; format: cell-based; settings: for cells with one or more refractile bodies / mean number of refractile bodies per cell: C6 cells, after 48 hours
U373 = assay: MTT assay, human cancer cell line U373 (brain); format: cell-based; settings: U373, 25 μM, 48 hour MTT assay; for inhibition at 25 µM: Homo sapiens, U373 MG, read-out: Percent inhibition of human cancer cell line growth
U87 = assay: MTT assay, human cancer cell line U87 (brain); format: cell-based; settings: U87, 25 μM, 48 hour MTT assay; for inhibition at 25 µM: Homo sapiens, U-87 MG, read-out: Percent inhibition of human cancer cell line growth
Calu6 = assay: MTT assay, human cancer cell line Calu6 (lung); format: cell-based; settings: Calu6, 25 μM, 48 hour MTT assay; for inhibition at 25 µM: Homo sapiens, Calu-6, read-out: Percent inhibition of human cancer cell line growth
Du145 = assay: MTT assay, human cancer cell line Du145 (prostate); format: cell-based; settings: Du145, 25 μM, 48 hour MTT assay; for inhibition at 25 µM: Homo sapiens, DU-145, read-out: Percent inhibition of human cancer cell line growth
U118 = assay: MTT assay, human cancer cell line U118 (brain); format: cell-based; settings: U118, 25 μM, 48 hour MTT assay; for inhibition at 25 µM: Homo sapiens, read-out: Percent inhibition of human cancer cell line growth
C6 glioma cells [4] = assay: MTT cell proliferation assay, C6 glioma cells; format: cell-based; settings: for IC50: MTT assay, FIG. 1, read-out: IC50, inhibition of C6 glioma cells; for inhibition at 25 µM: 48 h, two days, three different experiments
HS578T = assay: MTT assay, human cancer cell line HS578T (breast); format: cell-based; settings: 48 hour MTT assay; for inhibition at 25 µM: Homo sapiens, Hs-578T, read-out: Percent inhibition of human cancer cell line growth
C6 cells [5] = assay: Lipid incorporation assay (14C-arachidonic acid); format: cell-based; settings: 25 μM, 48 hours
W138 cells = assay: Refractile bodies by phase microscopy, W138 cells; format: cell-based; settings: same length of time and dosage
C6 glioma cells [6] = assay: Electron microscopy and trypan blue exclusion of treated cells; format: cell-based
C6 glioma cells [7] = assay: Flow cytometry/cell cycle analysis; format: cell-based; settings: 25 μM
Protocol: Flow cytometry/cell cycle analysis. For flow cytometry, cells were grown in low serum (0.5%) for two days to synchronize cells in G0/G1, after which they were placed in high serum (10%) for two days. The cells were then labeled with propidium iodide and fixed in 4% paraformaldehyde. Cells were examined using a MoFlo Facs sorter for DNA content.

WI38 cells = assay: Cell proliferation assay, normal fibroblast cell line WI38; format: cell-based, rat; settings: WI-38, 48 h, two days, three different experiments
C6 glioma cells [8] = assay: Co-incubation of C6 glioma cells with a specific CB1 antagonist; format: cell-based; settings: 3.2 μM of a specific CB1 antagonist
[9] = test system: human glioma cell line U87; assay: In vivo subcutaneous U87 tumor model in nude mice; design: species or system male nu/nu BALBc mice
Protocol: In vivo subcutaneous model. 10^6 U87 cells were injected into the right […] of male nu/nu BALBc mice (Charles River). Two days after inoculation, the mice received either 0.1 mg/kg ajulemic acid in 0.05 ml of safflower oil, or 0.05 ml safflower oil by oral administration. Thereafter, identical dosings were performed on each Monday, Wednesday, and Friday. When visible tumors appeared, the size of the tumors were estimated by averaging the values of two roughly perpendicular diameters measurements. Visible tumors were measured on the days of drug administration.

Protein kinase C (PKC) = Protein kinase C (PKC) assay in C6 cells; format: cell-based; settings: 25 μM
Protocol: Protein kinase C (PKC) assay. Cells were transferred into MEM media (0.5% serum) and cultured overnight. The next day, cells were treated with either DMSO or 25 μM ajulemic acid for the specified incubation time, after which the plates were trypsinized. 5×10^6 trypsinized cells were assayed for PKC activity using a kit (Calbiochem, cat. no. 53984).

[10] = 48 hours, mean over the ten human lines
[11] = two days in 10% serum after synchronization
[12] = two days in 10% serum after synchronization, listed as AJA

Structure (SMILES): CCCCCCC(C)(C)c1cc(O)c2c(c1)OC(C)(C)[C@@H]1CC=C(C(=O)O)C[C@@H]21 (single isomer, unassigned) [D-isomer of ajulemic acid]
- potency of D-isomer compared to L-isomer of ajulemic acid [1]: marked decrease in the potency

Structure (SMILES): CCCCCc1cc(O)c2c(c1)OC(C)(C)[C@@H]1CC=C(C(=O)O)C[C@@H]21 [THC-11-oic acid]
- Percent inhibition of human cancer cell line growth (A172): 61 ± 2%
- inhibition levels (mean±SD) ([2]; 25 μM, 48 hours, mean over the ten human lines): 13.1±18.5%
- Percent inhibition of human cancer cell line growth (J82): 1 ± 1%
- Percent inhibition of human cancer cell line growth (HT1376): 21 ± 12%
- Percent inhibition of human cancer cell line growth (PC3): 1 ± 1%
- refractile bodies noted (in words) (C6 cells [3]; C6 glioma cells, 25 μM, 48 hours): no refractile bodies
- Percent inhibition of human cancer cell line growth (U373): 0%
- Percent inhibition of human cancer cell line growth (U87): 5 ± 1%
- Percent inhibition of human cancer cell line growth (Calu6): 19 ± 5%
- Percent inhibition of human cancer cell line growth (Du145): 7 ± 3%
- Percent inhibition of human cancer cell line growth (U118): 14 ± 3%
- IC50 (C6 glioma cells [4]): 20 µM
- Percent inhibition of human cancer cell line growth (HS578T; 25 μM): 2 ± 1%

Structure (SMILES): CCCCCCC(C)(C)c1cc(O)c2c(c1)OC(C)(C)[C@@H]1CC=C(C(=O)O)C[C@@H]21 [ajulemic acid, 1′,1′-dimethylheptyl-Δ^8-THC-11-oic acid]
- inhibition at 25 µM (A172): 76 ± 1%
- effectiveness compared to THC ([2]; 25 μM, p<0.05, in six of the ten lines tested): significantly more effective
- inhibition at 25 µM [2, 10]: 61.3 ± 12.1%
- content of tri- and di-glyceride versus controls (C6 cells [5]): over three-fold greater
- neutral lipids versus basal levels (C6 cells [5]; p<0.05 vs control, FIG. 3): significant increase above basal levels
- inhibition at 25 µM (J82): 57 ± 3%
- inhibition at 25 µM (HT1376): 60 ± 2%
- refractile bodies noted (in words) (W138 cells): no refractile bodies
- inhibition at 25 µM (PC3): 69 ± 2%
- cells with one or more refractile bodies (C6 cells [3]): 83%
- mean number of refractile bodies per cell (C6 cells [3]): 1.78±1.6 per cell
- cell size (C6 cells [3]; after 48 hours of exposure): marked increase in cell size
- recovery upon drug removal (C6 glioma cells [6]): recover quickly upon drug removal
- state of treated cells under electron microscopy (C6 glioma cells [6]): neither apoptotic nor necrotic
- viability rate by trypan blue exclusion (C6 glioma cells [6]; treated cells): > 95%
- inhibition at 25 µM (U373): 34 ± 1%
- inhibition at 25 µM (U87): 54 ± 2%
- inhibition at 25 µM (Calu6): 69 ± 3%
- inhibition at 25 µM (Du145): 74 ± 2%
- inhibition at 25 µM (U118): 60 ± 2%
- rate of apoptosis (sub-G0 cells) (C6 glioma cells [7]; two days): not increased
- G0/G1 (mean % ± SD) (C6 glioma cells [7]; [11]): 39.1 ± 1.3 %
- G2/M (mean % ± SD) (C6 glioma cells [7]; [11]): 32.3%
- S (mean % ± SD) (C6 glioma cells [7]; [11]): 13.0%
- G2/M (mean % ± SD) (C6 glioma cells [7]; [12]): 32.3 ± 3.0 %
- S (mean % ± SD) (C6 glioma cells [7]; [12]): 13.0 ± 2.3 %
- inhibition at 25 µM (WI38 cells): 44%
- change of effect on co-incubation with CB1 antagonist (in words) (C6 glioma cells [8]): slight potentiation
- appearance and size of tumors (in words) ([9]; 0.1 mg/kg thrice weekly, FIG. 4): delay in both the appearance and size of tumors
- mean tumor diameter ([9]; day 25 post-inoculation, 0.1 mg/kg oral thrice weekly, n=5, p=0.015): 3.8±8.5 mm
- onset of PKC activity increase (Protein kinase C (PKC)): increased within five minutes
- PKC activity versus control (Protein kinase C (PKC); for one hour): approximately two-fold above that of control
- inhibition at 25 µM (C6 glioma cells [4]): 65%
- IC50 (C6 glioma cells [4]; C6 glioma): 55 µM
- inhibition at 25 µM (HS578T): 60 ± 2%

Structure (SMILES): CCCCCc1cc(O)c2c(c1)OC(C)(C)[C@@H]1CCC(C)=C[C@@H]21 [Δ^9-THC, tetrahydrocannabinol]
- inhibition at 25 µM (A172): 42 ± 5%
- inhibition at 25 µM [2, 10]: 39.4 ± 22%
- inhibition at 25 µM (J82): 63 ± 6%
- inhibition at 25 µM (HT1376): 23 ± 5%
- inhibition at 25 µM (PC3): 72 ± 2%
- cells with one or more refractile bodies (C6 cells [3]): 27%
- mean number of refractile bodies per cell (C6 cells [3]): 0.22±0.5 per cell
- inhibition at 25 µM (U373): 0%
- inhibition at 25 µM (U87): 20 ± 5%
- inhibition at 25 µM (Calu6): 28 ± 5%
- inhibition at 25 µM (Du145): 55 ± 7%
- inhibition at 25 µM (U118): 39 ± 5%
- inhibition at 25 µM (WI38 cells): 66%
- decrease in potency on co-incubation with CB1 antagonist (C6 glioma cells [8]): 150%
- inhibition at 25 µM (C6 glioma cells [4]): 50%
- IC50 (C6 glioma cells [4]; C6 glioma): 10 µM
- inhibition at 25 µM (HS578T): 52 ± 5%
